Assay results as given in patent publication US20150322033A1, “ANTIBACTERIAL AGENT” (priority 2012, published 2015).
≈ marks a conversion by molar mass, not a printed value. Where two headings read alike, the source gives them in different places.

Columns and labels:
[1] = tested on: levofloxacin-susceptible Staphylococcus aureus strain MS5935-1; test: Emergence frequency of levofloxacin-resistant Staphylococcus aureus on agar plate medium; assay type: cell-based; details: for Emergence frequency of levofloxacin resistance mutation (mutations/genera): FALCOR
Source text: Emergence frequency of levofloxacin-resistant Staphylococcus aureus was examined in the presence or absence of apigenin by using a levofloxacin-susceptible Staphylococcus aureus strain according to the following method.
The levofloxacin-susceptible Staphylococcus aureus strain MS5935-1 (strain in which the 80th serine residue from the amino terminus of the wild-type topoisomerase IV encoded by parC is mutated with phenylalanine residue, see, Hiramatsu K., Igarashi M., Morimoto Y, Baba T., Umekita M., Akamatsu Y., Int. J. Antimicrob. Agents, 2012 June; 39(6), 478-85) was cultured overnight at 37° C. with shaking in 4 mL of TBS (produced by Dickinson). After completion of the culture, the cells were suspended in fresh TBS, and the cell suspension was adjusted to have an absorbance of 0.3 measured at 578 nm. Then, the cell suspension was diluted 10,000 times with TBS. This diluted cell suspension was inoculated (0.1 mL each) into ten test tubes containing 4 mL each of TBS, and preculture was carried out overnight at 37° C.
Levofloxacin was dissolved in sterilized water at a concentration of 40 mg/L. This solution of levofloxacin was added on plates in a volume of 1 mL/plate, and 9 mL of M-H (Mueller Hinton) Agar (produced by Becton, Dickinson and Company) was added to each plate. Five of such plates were prepared. […]
Number of the colonies formed on each agar plate medium after the culture of 2 days was counted. The emergence frequency of levofloxacin-resistant Staphylococcus aureus was calculated according to the following equation using the number of colonies and the number of bacterial cells inoculated onto each agar plate medium (CFU, colony forming unit). Further, from the calculated emergence frequency of the levofloxacin-resistant Staphylococcus aureus, emergence frequency of levofloxacin resistance mutation and 95% confidence interval (CI range) were calculated by using FALCOR (Fluctuation AnaLysis CalculatOR, http://www.keshaysingh.org/protocols/FALCOR.html, see, Hall B. M. et al., Bioinformatics., 2009, 25(12), 1564-5). […]

S. aureus Mu50 = test: microbe, parasite or virus in culture; assay type: cell-based, Staphylococcus aureus; details: for MIC ratio: (MIC value for S. aureus FDA209P)/(MIC value for S. aureus Mu50); for MIC: Staphylococcus aureus;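 for MIC ratio: ratio is FDA209P MIC divided by Mu50 MIC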
Procedure, shortened: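 Overnight TSB cultures at 37 °C adjusted to A578 0.3, diluted 500-fold in CAMHB and mixed 1:1 with compound in CAMHB; static overnight incubation at 37 °C. MIC reported in mg/L; Mu50 NR-1 also tested in some runs.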

[2] = MU50, read-out: MIC (mg/L) S. aureus Mu50, Example 2, Table 12

Row | Compound | Emergence frequency of levofloxacin resistance mutation (mutations/genera) ([1]; agar plate medium with LVFX 4 mg/L, apigenin 0) | MIC ratio (S. aureus Mu50) | MIC (S. aureus Mu50; [2]) [mg/L] | Emergence frequency of levofloxacin resistance mutation, medium with levofloxacin and apigenin / medium with levofloxacin ([1]; LVFX 4 mg/L, apigenin 32 mg/L) | Emergence frequency of levofloxacin resistance mutation (mutations/genera) ([1]; agar plate medium with LVFX 4 mg/L and apigenin 32 mg/L) | MIC ratio (S. aureus Mu50; listed as apigenin) | MIC (S. aureus Mu50; MU50, read-out: MIC (mg/L) Mu50, Example 1, Tables 1 to 10) [mg/L]
1 | C[C@H]1COc2c(N3CCN(C)CC3)c(F)cc3c(=O)c(C(=O)O)cn1c23 [Levofloxacin, levofloxacin, reference compound] | 1.45 × 10^−9 mutations/genera | 0.016 | 8 (≈ 22.1 µM) | – | – | – | –
2 | O=c1cc(-c2ccc(O)cc2)oc2cc(O)cc(O)c12 [No. 7, 4′,5,7-Trihydroxyflavone] | – | >32 | 4 (≈ 14.8 µM) | 1/29 | 0.05 × 10^−9 mutations/genera | ≥ 32 | 4 (≈ 14.8 µM)
